In ChEMBL document CHEMBL6153093, “Aurovertins from a Marine-Derived Penicillium Species and Nonenzymatic Reactions in Their Formation” (J Nat Prod, 2025) one finds Activity data, which are given here for twelve compounds.

One data set concerns Nakaseomyces glabratus. Nature of the data set: Antifungal activity against Candida glabrata ATCC 2001 at 0.1 mg/mL incubated for 12 hrs by agar dilution method. It counts as functional, organism-based. In general terms: Agar dilution tests growth on a series of plates holding different concentrations.
For another data set, the system named is L02. Nature of the data set: Cytotoxicity against human L02 cells incubated for 48 hrs by CCK8 assay. To be noted: l02, 48 h. The data set is classed as toxicity, cell-based. For orientation: Tetrazolium assays rely on reduction of a dye to a coloured formazan, in cell work by metabolically active cells.
In data set [1] the test system is Staphylococcus aureus. Nature of the data set: Antibacterial activity against Staphylococcus aureus ATCC 6538 at 0.1 mg/mL incubated for 12 hrs by agar dilution method. The data set is classed as functional, organism-based.
The next data set concerns Candida albicans. Nature of the data set: Antifungal activity against Candida albicans ATCC 10231 at 0.1 mg/mL incubated for 12 hrs by agar dilution method. The data set is classed as functional, organism-based.
Another data set has as its system PC-9. The experiment in a line: Cytotoxicity against human PC-9 cells incubated for 48 hrs by CCK8 assay. The data set is classed as functional, cell-based.
In the next data set the test system is Escherichia coli. Nature of the data set: Antibacterial activity against Escherichia coli ATCC 11775 at 0.1 mg/mL incubated for 12 hrs by agar dilution method. The data set is classed as functional, organism-based.
In the next data set the test system is Pseudomonas aeruginosa. The experiment in a line: Antibacterial activity against Pseudomonas aeruginosa ATCC 10145 at 0.1 mg/mL incubated for 12 hrs by agar dilution method. The data set is classed as functional, organism-based.
Data set [2] deals with Staphylococcus aureus. The experiment in a line: Antibacterial activity against methicillin-resistant Staphylococcus aureus subsp. aureus ATCC 43300 at 0.1 mg/mL incubated for 12 hrs by agar dilution method. It counts as functional, organism-based.
The next data set deals with A549. Nature of the data set: Cytotoxicity against human A549 cells incubated for 48 hrs by CCK8 assay. The data set is classed as functional, cell-based.
In the next data set the test system is HCT-116. Nature of the data set: Cytotoxicity against human HCT-116 cells incubated for 48 hrs by CCK8 assay. It counts as functional, cell-based.

The source made the active and inactive calls. No cut-off for these calls is given here.

With `COc1cc(=O)oc(/C=C/C=C/C=C\[C@@]2(C)O[C@]3(C)[C@@H](O)[C@](C)(O[C@@H]3C)[C@@H]2O)c1C`, the outcome in the data set with Nakaseomyces glabratus, in the data set with Staphylococcus aureus [1], in the data set with Candida albicans, in the data set on PC-9, in the data set with Escherichia coli and in the data set on Pseudomonas aeruginosa was inactive. Moreover, the result in the data set with Staphylococcus aureus [2] and in the data set on A549 was inactive. The Activity entry in the data set with L02 was “Non-toxic”.

Take `COc1cc(=O)oc(/C=C/C=C/C=C\[C@]2(C)O[C@]3(C)[C@@H](O)[C@](C)(O[C@@H]3C)[C@@H]2O)c1C`: the result in the data set with Nakaseomyces glabratus, with Staphylococcus aureus [1], in the data set with Candida albicans, in the data set on PC-9, in the data set on Escherichia coli and in the data set on Pseudomonas aeruginosa was inactive. Besides, the outcome in the data set on Staphylococcus aureus [2] and in the data set on A549 was inactive. Moreover, the Activity entry in the data set on L02 is “Non-toxic”.

In the case of `COc1cc(=O)oc(\C=C/C=C/C=C/C(C)=C/[C@]2(C)O[C@H](C)[C@](C)(O)[C@H]2O)c1C`, the result in the data set with Nakaseomyces glabratus, with Staphylococcus aureus [1], in the data set on Candida albicans, in the data set with Escherichia coli, with Pseudomonas aeruginosa and in the data set on Staphylococcus aureus [2] was inactive. In addition, the outcome in the data set on HCT-116 and with A549 was inactive. Moreover, in the data set with L02, the Activity result is “Non-toxic”.

With `COc1cc(=O)oc(/C=C/C=C/C=C/[C@@]2(C)O[C@@]3(C)[C@@H](C)O[C@](C)(C2=O)[C@H]3O)c1C`, the outcome in the data set with Nakaseomyces glabratus, in the data set with Staphylococcus aureus [1], in the data set on Candida albicans, in the data set on PC-9, with Escherichia coli and in the data set on Pseudomonas aeruginosa was inactive. The result in the data set on Staphylococcus aureus [2] and in the data set with A549 was inactive. For the same compound, the Activity result in the data set on L02 is given as “Non-toxic”.

As to `COc1cc(=O)oc(/C=C/C=C/C=C/C(C)=C/[C@]2(C)O[C@H](C)[C@](C)(O)[C@H]2O)c1C`, the outcome with Nakaseomyces glabratus, in the data set on Staphylococcus aureus [1], in the data set on Candida albicans, in the data set on Escherichia coli, with Pseudomonas aeruginosa and with Staphylococcus aureus [2] was inactive. Moreover, the outcome with HCT-116 and in the data set on A549 was inactive. Moreover, the Activity result in the data set with L02 is listed as “Non-toxic”.

`COc1cc(=O)oc(\C=C/C=C/C=C/[C@]2(C)O[C@]3(C)[C@@H](O)[C@@](C)(O[C@@H]3C)[C@@H]2O)c1C`: the result in the data set with Nakaseomyces glabratus, in the data set with Staphylococcus aureus [1], in the data set with Candida albicans, in the data set on PC-9, in the data set with Escherichia coli and in the data set on Pseudomonas aeruginosa was inactive. Moreover, the outcome with Staphylococcus aureus [2] and in the data set with A549 was inactive. For the same compound, the Activity entry in the data set on L02 is “Non-toxic”.

Turning to `COc1cc(=O)oc(/C=C/C=C/C=C/[C@@]2(C)O[C@]3(C)[C@@H](O)[C@](C)(O[C@@H]3C)[C@H]2O)c1C`, the outcome in the data set with Nakaseomyces glabratus, in the data set with Staphylococcus aureus [1], with Candida albicans, in the data set with PC-9, in the data set on Escherichia coli and with Pseudomonas aeruginosa was inactive. Further, the result in the data set with Staphylococcus aureus [2] and with A549 was inactive. The Activity entry in the data set on L02 is “Non-toxic”.

Regarding `COc1cc(=O)oc(/C=C/C=C/C=C/[C@]2(C)O[C@]3(C)[C@@H](O)[C@@](C)(O[C@@H]3C)[C@@H]2O)c1C`, the outcome in the data set with Nakaseomyces glabratus, in the data set on Staphylococcus aureus [1], with Candida albicans, in the data set on PC-9, with Escherichia coli and in the data set on Pseudomonas aeruginosa was inactive. Besides, the result in the data set with Staphylococcus aureus [2] and in the data set with A549 was inactive. Also, the Activity entry in the data set on L02 is reported as “Non-toxic”.

`COc1cc(=O)oc(/C=C/C=C/C=C/C(C)=C\[C@]2(C)O[C@H](C)[C@](C)(O)[C@H]2O)c1C`: the result with Nakaseomyces glabratus, in the data set with Staphylococcus aureus [1], in the data set on Candida albicans, with Escherichia coli, in the data set on Pseudomonas aeruginosa and in the data set with Staphylococcus aureus [2] was inactive. Besides, the outcome in the data set with HCT-116 and in the data set with A549 was inactive. Also, the Activity entry in the data set on L02 was “Non-toxic”.

Turning to `COc1cc(=O)oc(/C=C/C=C/C=C/[C@@]2(C)O[C@]3(C)[C@@H](O)[C@@](C)(O[C@@H]3C)C2=O)c1C`, the outcome with Nakaseomyces glabratus, with Staphylococcus aureus [1], in the data set on Candida albicans, in the data set on PC-9, in the data set on Escherichia coli and in the data set with Pseudomonas aeruginosa was inactive. Moreover, the outcome in the data set on Staphylococcus aureus [2] and in the data set on A549 was inactive. Moreover, the Activity entry with L02 is reported as “Non-toxic”.

Turning to `COc1cc(=O)oc(/C=C/C=C/C=C/[C@]2(C)O[C@]3(C)[C@@H](O)[C@@](C)(O[C@@H]3C)[C@H]2O)c1C`, the result in the data set with Nakaseomyces glabratus, in the data set with Staphylococcus aureus [1], in the data set with Candida albicans, in the data set on PC-9, in the data set with Escherichia coli and in the data set with Pseudomonas aeruginosa was inactive. Besides, the result in the data set with Staphylococcus aureus [2] and in the data set on A549 was inactive. Further, the Activity entry in the data set on L02 was “Non-toxic”.

As for `COc1cc(=O)oc(/C=C/C=C/C=C/[C@]2(C)O[C@]3(C)[C@@H](O)[C@@](C)(O[C@@H]3C)C2=O)c1C`, the result in the data set on Nakaseomyces glabratus, in the data set on Staphylococcus aureus [1], with Candida albicans, with PC-9, in the data set on Escherichia coli and in the data set on Pseudomonas aeruginosa was inactive. In addition, the outcome in the data set with Staphylococcus aureus [2] and in the data set on A549 was inactive. Besides, the Activity entry in the data set on L02 is given as “Non-toxic”.
